Data taken from PMC6744936, “Genome-wide identification, characterization and expression pattern analysis of APYRASE family members in response to abiotic and biotic stresses in wheat” (PeerJ, 2019).

Test system: T1, TaAPY3-1
T1 construct: pET22a, E. coli BL21; genome set A copy
Experiment: phosphate release (Phosphate Assay Kit)
Format: biochemical, Triticum aestivum
Details: 37 °C, pH 5.5, 8 mM Ca2+

Km: 8.7 mM
Compound: Nc1ncnc2c1ncn2[C@@H]1O[C@H](COP(=O)(O)OP(=O)(O)OP(=O)(O)O)[C@@H](O)[C@H]1O [ATP]
